Assay results published in patent US10174032B2, “Heterocyclic compound classes for signaling modulation” (SignalRx Pharmaceuticals, Inc., priority 2014, dated 2019).
Where two headings read alike, the source gives them in different places.

What was measured:
PI-3 kinases = details: cited from earlier work
BET protein BRD4-1 = BET protein BRD4-1 (Homo sapiens, UniProt O60885); details: S W J Ember 2014; cited from earlier work
PIM-1 = PIM-1 (Homo sapiens, UniProt P11309); experiment: Kinase inhibition assay, P-33 labelled ATP phosphate transfer, PIM-1; type: biochemical; details: for inhibition at 10 µM: read-out: PIM-1(% Inh at 10 μM)
Experimental: (§1) The assays determined the amount of radioactive phosphate transferred from P-33 labelled ATP to the substrate by the enzyme in the presence of various concentrations of the inhibitor test compounds. […] After this time period the cells were serum starved for 5 hours followed by application of the test compound. Test compound was added as a DMSO (dimethyl sulfoxide) solution such that the final DMSO concentration in the cell media was less than or equal to 0.2% by volume. After 30 minutes of exposure the growth factor stimulant, human IGF-1 (Pepro Tech, Inc., Rocky Hill, N.J., Cat.#100-11), was added in each well. […] A SpectraMax Plus spectrophotometric plate reader (Molecular Devices, Sunnydale, Calif.) was used to measure the optical density signal for pAKT at 450 nm (OD450 nm). The pAKT OD450 nm readings were normalized by total protein amount in the cell lysates determined by standard methods. Concentrations of test compounds required to inhibit IGF stimulated pAKT levels to 50% of maximum levels in PC3 cells (termed DM50 for decreased maximum 50%) were calculated by inputting the dose responses in the software package GraphPad Prism4 (GraphPad Software, Inc., San Diego, Calif.).

PI3K-beta = PI3K-beta (Homo sapiens, UniProt P42338); experiment: Kinase inhibition assay, P-33 labelled ATP phosphate transfer, PI3K-beta; type: biochemical; details: for inhibition at 10 µM: read-out: PI3K-beta(% Inh at 10 μM)
Experimental: as §1

PI3K-gamma = PI3K-gamma (Homo sapiens, UniProt P48736); experiment: Kinase inhibition assay, P-33 labelled ATP phosphate transfer, PI3K-gamma; type: biochemical; details: for inhibition at 10 µM: read-out: PI3K-gamma(% Inh at 10 μM)
Experimental: as §1

PC3 cells = experiment: PC3 cell proliferation (WST, 72 hours); type: cell-based; details: Homo sapiens, read-out: PC3 cell proliferation(IC50 μM)
Experimental: The PC3 cell proliferation data in column 26 of Table 5 was obtained as follows: PC3 cells were obtained from the American Type Culture Collection (ATCC, Manassas, Va., Cat.#CRL-1435). Two thousand cells from the prostate cancer line PC3 were placed in 50 μL of complete RPMI 1640 media (Invitrogen, Carlsbad, Calif., Cat.#22400-105) with 10% fetal bovine serum, (Invitrogen, Carlsbad, Calif., Cat.#10438-026) into each well of 96-well cell culture plates in a hexaplicate sampling pattern. A 50 μL aliquot of test compound (prepared from stock test compounds in DMSO diluted into media) was added to the appropriate well such that the final concentrations of test compound were 200, 40, 8, 1.6, 0.32, 0.064, 0.0128, 0.00256, and 0 μM and the final DMSO concentration was less than or equal to 0.2% . The plates were incubated for 72 hours 37° C. in an atmosphere of 5% CO2. At the end of this time a 10 μL aliquot of WST solution (Roche Applied Science, Mannheim, Germany) was added into each of the wells. Cells were exposed to the WST solution for 4 hours. A SpectraMax Plus spectrophotometric plate reader (Molecular Devices, Sunnydale, Calif.) was then used to measure the optical density at 450 nm (OD450 nm). Sigmoidal curves were drawn for the dose responses and IC50 values were calculated using the software package GraphPad Prism4 (GraphPad Software, Inc., San Diego, Calif.).

mTOR = mTOR (Homo sapiens, UniProt P42345); experiment: Kinase inhibition assay, P-33 labelled ATP phosphate transfer, mTOR; type: biochemical; details: for inhibition at 10 µM: read-out: mTOR(% Inh at 10 μM); for inhibition at 0.3 µM: read-out: mTOR(% Inh at 300 nM)
Experimental: as §1

DNA-PK = DNA-PK (Homo sapiens, UniProt P78527); experiment: Kinase inhibition assay, P-33 labelled ATP phosphate transfer, DNA-PK; type: biochemical
Experimental: as §1

PI3K-alpha = PI3K-alpha (Homo sapiens, UniProt P42336); experiment: Kinase inhibition assay, P-33 labelled ATP phosphate transfer, PI3K-alpha; type: biochemical; details: for inhibition at 0.3 µM: read-out: PI3K-alpha (% Inh at 300 nM)
Experimental: as §1

PI3K-delta = PI3K-delta (Homo sapiens, UniProt O00329); experiment: Kinase inhibition assay, P-33 labelled ATP phosphate transfer, PI3K-delta; type: biochemical; details: for inhibition at 10 µM: read-out: PI3K-delta(% Inh at 10 μM); for inhibition at 0.3 µM: read-out: PI3K-delta(% Inh at 300 nM)
Experimental: as §1

BRD4 = BRD4 (Homo sapiens, UniProt O60885); experiment: BRD4 inhibition assay of CAL101; type: binding; details: no significant BRD4 inhibition
[1] = tested on: pAKT serine 473 in PC3 cells; experiment: IGF-1 stimulated pAKT serine 473 level in PC3 cells (sandwich ELISA); type: cell-based; details: Homo sapiens, PC-3, 0.5 h, 30 minutes compound exposure, termed DM50 in text
Experimental: as §1

PLK-1 = PLK-1 (Homo sapiens, UniProt P53350); experiment: Kinase inhibition assay, P-33 labelled ATP phosphate transfer, PLK-1; type: biochemical; details: for inhibition at 0.3 µM: read-out: PLK-1(% Inh at 300 nM)
Experimental: as §1

PI3K-alpha, sequence (P42336 whole entry, species assumed): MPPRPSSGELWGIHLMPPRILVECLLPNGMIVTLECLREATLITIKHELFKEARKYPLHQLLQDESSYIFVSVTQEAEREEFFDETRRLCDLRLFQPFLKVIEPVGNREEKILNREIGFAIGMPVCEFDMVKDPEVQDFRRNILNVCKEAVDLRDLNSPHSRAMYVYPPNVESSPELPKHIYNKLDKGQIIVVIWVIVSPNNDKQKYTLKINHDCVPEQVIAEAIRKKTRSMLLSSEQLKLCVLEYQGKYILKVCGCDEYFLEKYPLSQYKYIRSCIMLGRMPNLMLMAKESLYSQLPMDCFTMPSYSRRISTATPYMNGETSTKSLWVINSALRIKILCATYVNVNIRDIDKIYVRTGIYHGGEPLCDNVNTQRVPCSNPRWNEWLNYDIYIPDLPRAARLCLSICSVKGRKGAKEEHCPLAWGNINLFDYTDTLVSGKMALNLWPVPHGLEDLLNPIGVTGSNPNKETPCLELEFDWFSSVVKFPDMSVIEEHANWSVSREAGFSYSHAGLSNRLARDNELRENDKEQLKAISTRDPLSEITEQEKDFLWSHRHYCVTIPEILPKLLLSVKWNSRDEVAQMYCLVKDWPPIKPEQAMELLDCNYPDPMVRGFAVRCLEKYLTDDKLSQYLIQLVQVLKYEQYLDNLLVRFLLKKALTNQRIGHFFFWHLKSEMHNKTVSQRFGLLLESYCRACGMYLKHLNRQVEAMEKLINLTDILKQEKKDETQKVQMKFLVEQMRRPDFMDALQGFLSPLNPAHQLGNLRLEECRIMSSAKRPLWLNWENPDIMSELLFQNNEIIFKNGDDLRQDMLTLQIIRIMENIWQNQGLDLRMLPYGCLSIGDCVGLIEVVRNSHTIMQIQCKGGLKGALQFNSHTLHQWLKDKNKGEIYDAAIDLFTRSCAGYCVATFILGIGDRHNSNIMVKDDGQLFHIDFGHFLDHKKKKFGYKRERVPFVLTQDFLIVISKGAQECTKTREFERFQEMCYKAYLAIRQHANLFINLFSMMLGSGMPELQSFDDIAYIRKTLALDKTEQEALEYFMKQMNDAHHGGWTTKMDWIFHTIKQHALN
PI3K-alpha, sequence (P27986 whole entry partner, species assumed): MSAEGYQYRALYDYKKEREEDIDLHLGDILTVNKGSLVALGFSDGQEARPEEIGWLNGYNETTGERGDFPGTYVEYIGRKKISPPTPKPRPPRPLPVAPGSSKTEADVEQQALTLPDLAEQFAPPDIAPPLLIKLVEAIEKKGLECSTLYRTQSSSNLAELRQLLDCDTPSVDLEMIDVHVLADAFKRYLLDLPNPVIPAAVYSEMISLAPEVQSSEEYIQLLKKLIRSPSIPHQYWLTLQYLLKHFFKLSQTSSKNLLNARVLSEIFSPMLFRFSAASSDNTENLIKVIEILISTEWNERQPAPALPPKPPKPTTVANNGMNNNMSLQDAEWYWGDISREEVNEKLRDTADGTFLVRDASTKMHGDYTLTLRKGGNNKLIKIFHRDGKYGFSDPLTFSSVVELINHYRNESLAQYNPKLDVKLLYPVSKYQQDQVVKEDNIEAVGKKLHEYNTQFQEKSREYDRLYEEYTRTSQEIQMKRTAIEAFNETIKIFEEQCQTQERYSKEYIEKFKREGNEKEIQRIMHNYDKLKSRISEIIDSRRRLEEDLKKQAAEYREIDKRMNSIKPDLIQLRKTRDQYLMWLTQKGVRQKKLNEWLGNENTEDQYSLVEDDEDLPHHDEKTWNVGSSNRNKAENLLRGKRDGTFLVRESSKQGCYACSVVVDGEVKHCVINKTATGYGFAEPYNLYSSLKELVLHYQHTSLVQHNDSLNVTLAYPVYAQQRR
PLK-1, sequence (P53350 whole entry, species assumed): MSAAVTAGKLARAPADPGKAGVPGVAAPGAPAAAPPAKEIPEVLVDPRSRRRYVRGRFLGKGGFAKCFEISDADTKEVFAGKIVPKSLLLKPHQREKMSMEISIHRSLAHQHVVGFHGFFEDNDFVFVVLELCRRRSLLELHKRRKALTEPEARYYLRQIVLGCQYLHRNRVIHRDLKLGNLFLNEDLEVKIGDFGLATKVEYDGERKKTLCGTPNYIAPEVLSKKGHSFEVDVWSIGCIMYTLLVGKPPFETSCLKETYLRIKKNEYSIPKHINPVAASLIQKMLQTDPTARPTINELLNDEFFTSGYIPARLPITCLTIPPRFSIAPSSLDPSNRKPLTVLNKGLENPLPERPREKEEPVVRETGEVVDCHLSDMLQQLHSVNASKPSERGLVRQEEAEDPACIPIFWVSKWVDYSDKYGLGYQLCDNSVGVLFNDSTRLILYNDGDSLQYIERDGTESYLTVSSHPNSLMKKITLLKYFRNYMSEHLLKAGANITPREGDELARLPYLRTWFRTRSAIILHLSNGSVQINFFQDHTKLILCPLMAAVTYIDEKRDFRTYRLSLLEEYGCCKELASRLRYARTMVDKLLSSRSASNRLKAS
PI3K-gamma, sequence (P48736 whole entry, species assumed): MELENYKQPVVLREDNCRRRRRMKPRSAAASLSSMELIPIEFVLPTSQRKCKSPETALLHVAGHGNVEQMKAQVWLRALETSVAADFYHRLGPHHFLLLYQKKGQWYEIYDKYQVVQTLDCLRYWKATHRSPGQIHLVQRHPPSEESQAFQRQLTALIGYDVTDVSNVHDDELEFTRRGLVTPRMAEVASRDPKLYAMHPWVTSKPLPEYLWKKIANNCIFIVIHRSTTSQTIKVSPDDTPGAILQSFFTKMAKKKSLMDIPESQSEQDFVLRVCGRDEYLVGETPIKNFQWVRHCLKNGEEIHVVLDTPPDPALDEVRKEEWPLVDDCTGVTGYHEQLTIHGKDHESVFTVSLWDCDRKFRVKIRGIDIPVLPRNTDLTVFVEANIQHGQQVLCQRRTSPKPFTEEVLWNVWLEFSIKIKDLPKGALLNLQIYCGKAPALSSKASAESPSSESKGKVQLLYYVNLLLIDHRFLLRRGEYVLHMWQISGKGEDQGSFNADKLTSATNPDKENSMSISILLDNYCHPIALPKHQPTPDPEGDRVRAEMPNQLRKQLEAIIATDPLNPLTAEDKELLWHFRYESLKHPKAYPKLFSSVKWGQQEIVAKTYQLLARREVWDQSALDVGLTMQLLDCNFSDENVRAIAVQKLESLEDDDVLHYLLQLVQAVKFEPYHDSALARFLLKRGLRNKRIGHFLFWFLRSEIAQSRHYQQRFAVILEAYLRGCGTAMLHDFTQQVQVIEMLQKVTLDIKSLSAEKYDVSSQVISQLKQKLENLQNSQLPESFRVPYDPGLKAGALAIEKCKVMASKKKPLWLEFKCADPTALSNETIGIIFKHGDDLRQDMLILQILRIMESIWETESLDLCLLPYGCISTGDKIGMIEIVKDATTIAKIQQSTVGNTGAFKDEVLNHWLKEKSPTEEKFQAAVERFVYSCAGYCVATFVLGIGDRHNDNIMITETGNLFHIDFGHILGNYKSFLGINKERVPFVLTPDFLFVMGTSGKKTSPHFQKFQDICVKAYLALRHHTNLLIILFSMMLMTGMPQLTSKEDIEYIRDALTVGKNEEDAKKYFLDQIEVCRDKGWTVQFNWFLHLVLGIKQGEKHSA
PI3K-delta, sequence (O00329 whole entry, species assumed): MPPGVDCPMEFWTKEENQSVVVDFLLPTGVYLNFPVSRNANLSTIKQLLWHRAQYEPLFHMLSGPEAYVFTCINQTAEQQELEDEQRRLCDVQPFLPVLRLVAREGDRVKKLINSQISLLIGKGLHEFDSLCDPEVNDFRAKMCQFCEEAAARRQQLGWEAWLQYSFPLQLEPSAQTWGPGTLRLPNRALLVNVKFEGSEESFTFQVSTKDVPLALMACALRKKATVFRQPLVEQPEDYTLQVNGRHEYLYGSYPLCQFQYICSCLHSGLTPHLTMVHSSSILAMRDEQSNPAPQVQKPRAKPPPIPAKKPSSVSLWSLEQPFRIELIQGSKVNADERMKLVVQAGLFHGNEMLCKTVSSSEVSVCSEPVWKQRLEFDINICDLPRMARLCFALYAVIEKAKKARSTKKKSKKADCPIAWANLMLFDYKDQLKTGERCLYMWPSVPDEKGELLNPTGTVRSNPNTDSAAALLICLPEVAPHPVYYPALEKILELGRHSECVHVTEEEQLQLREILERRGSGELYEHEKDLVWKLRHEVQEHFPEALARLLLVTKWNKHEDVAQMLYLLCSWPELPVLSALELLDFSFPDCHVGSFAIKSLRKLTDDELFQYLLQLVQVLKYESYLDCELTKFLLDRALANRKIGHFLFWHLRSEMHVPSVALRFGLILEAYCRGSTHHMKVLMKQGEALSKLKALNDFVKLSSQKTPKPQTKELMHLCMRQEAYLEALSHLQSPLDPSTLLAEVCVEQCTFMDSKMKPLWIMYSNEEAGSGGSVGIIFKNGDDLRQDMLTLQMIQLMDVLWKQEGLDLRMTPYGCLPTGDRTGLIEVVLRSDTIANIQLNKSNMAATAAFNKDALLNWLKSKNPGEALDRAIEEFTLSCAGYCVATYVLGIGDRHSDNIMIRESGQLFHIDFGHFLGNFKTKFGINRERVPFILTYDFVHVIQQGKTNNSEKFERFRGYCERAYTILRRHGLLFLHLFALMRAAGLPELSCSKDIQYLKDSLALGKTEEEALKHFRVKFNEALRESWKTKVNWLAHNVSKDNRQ
PI3K-delta, sequence (P27986 whole entry partner, species assumed): as the sequence (P27986 whole entry partner, species assumed) above
PIM-1, sequence (P11309 whole entry, species assumed): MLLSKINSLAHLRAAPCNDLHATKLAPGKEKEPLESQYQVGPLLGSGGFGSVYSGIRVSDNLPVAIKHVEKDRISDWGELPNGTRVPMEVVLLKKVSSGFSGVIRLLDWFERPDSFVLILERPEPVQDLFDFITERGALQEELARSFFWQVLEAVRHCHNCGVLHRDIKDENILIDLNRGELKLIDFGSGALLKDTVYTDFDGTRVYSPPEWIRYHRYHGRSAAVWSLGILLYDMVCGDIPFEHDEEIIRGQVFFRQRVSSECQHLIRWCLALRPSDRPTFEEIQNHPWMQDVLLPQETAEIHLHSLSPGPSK

Compound	IC50 (PC3 cells; PC-3, PC3 cells, 72 hours, WST) [µM]	inhibition at 0.3 µM (PI3K-alpha) [%]	inhibition at 0.3 µM (mTOR) [%]	inhibition at 0.3 µM (PLK-1) [%]	inhibition at 0.3 µM (PI3K-delta) [%]	also measured
O=c1cc(N2CCOCC2)oc2c(-c3ccccc3)cccc12 [LY294002, 2-(4-morpholinyl)-8-phenyl-4H-1-benzopyran-4-one]						IC50 (PI-3 kinases; C. J. Vlahos et al. 1994): 1.4 µM
Cc1cnc(Nc2ccc(N3CCN(C)CC3)cc2)nc1Nc1cccc(S(=O)(=O)NC(C)(C)C)c1 [TG101209]						inhibition of BET protein BRD4-1 (BET protein BRD4-1): potently inhibit
O=c1nc(N2CCOCC2)[nH]c2c1cnn2-c1ccc2c(c1)OCCO2 [Compound 27]	149	30				IC50 (PIM-1): 1 µM; inhibition at 10 µM (PI3K-beta): 12%; inhibition at 10 µM (PI3K-gamma): 48%; inhibition at 10 µM (mTOR): 4.4%; IC50 (DNA-PK): 24 µM; inhibition at 10 µM (PI3K-delta): 50%
CC[C@H](Nc1ncnc2[nH]cnc12)c1nc2cccc(F)c2c(=O)n1-c1ccccc1 [CAL101]						IC50 (BRD4): > 50 µM
O=c1nc(N2CCOCC2)oc2c(-c3ccccc3)csc12 [Compound 3, 2-morpholino-7-phenyl-4H-thieno[2,3-e][1,3]oxazin-4-one]	28		4			IC50 [1]: 11 µM; IC50 (PLK-1): 2.3 µM; IC50 (PI3K-beta): 10 µM; IC50 (PI3K-gamma): 5.5 µM; IC50 (PI3K-alpha): 1.4 µM; IC50 (PI3K-delta): 1.5 µM
CCOC(=O)Cn1ncc2c(=O)nc(N3CCOCC3)[nH]c21 [Compound 24]	1.4	6.6				inhibition at 10 µM (PIM-1): 0.9%; inhibition at 10 µM (PLK-1; read-out: PLK-1(% Inh at 10 μM)): 7.5%; inhibition at 10 µM (PI3K-beta): 22%; inhibition at 10 µM (PI3K-gamma): 14%; inhibition at 10 µM (mTOR): 0%; IC50 (DNA-PK): 24 µM; inhibition at 10 µM (PI3K-delta): 7.2%
O=c1nc(N2CCOCC2)[nH]c2c(-c3ccccc3)csc12 [Compound 5, 2-morpholino-7-phenylthieno[3,2-d]pyrimidin-4(1H)-one]	246					inhibition at 10 µM (PI3K-alpha; read-out: PI3K-alpha(% Inh at 10 μM)): 12%
CN(C)c1ccc(-c2csc3c(=O)nc(N4CCOCC4)oc23)cc1 [Compound 15]	20	11	0	0	33	
O=c1nc(N2CCOCC2)[nH]c2c1cnn2-c1ccccc1 [Compound 22]	263	14	42			inhibition at 10 µM (PIM-1): 45%; inhibition at 10 µM (PI3K-gamma): 8%; inhibition at 10 µM (PI3K-delta): 20%
O=C(NCCN1CCOCC1)c1cccc(-c2csc3c(=O)nc(N4CCOCC4)oc23)c1 [Compound 16]	31	16	0	0	17	
O=c1cc(N2CCNCC2)oc2c(-c3ccccc3)cccc12 [LY303511]						PI3K inhibition activity (PI-3 kinases; C. Vlahos et al. 1994): lose all PI3K inhibition activity
O=c1nc(N2CCOCC2)oc2c(-c3ccc4c(c3)OCCO4)csc12 [Compound 12]	4.7	53	0	0	72	
Nc1ccc(-c2csc3c(=O)nc(N4CCOCC4)oc23)cc1 [Compound 17]	108	22	0	0	32	
COc1cccc(-c2csc3c(=O)nc(N4CCOCC4)oc23)c1 [Compound 13]		6.8	0	0	0	IC50 (PC3 cells; PC-3, 72 h): 94 µM
